Results as given in PMC9317327, “Functional Characterization, Antimicrobial Effects, and Potential Antibacterial Mechanisms of NpHM4, a Derived Peptide of Nautilus pompilius Hemocyanin” (Marine Drugs, 2022).
Values after ≈ are worked out from the molar mass of the structure shown. Where two headings read alike, the source gives them in different places. Where a SMILES comes first, the peptide text is derived from it.

Legend:
Format in all cases: cell-based
[1] = test system: Escherichia coli (DH5α)
Description: (§1) The antimicrobial activity of the peptides was determined against Gram-negative bacteria, including V. alginolyticus (A056), E. coli (DH5α), and V. parahaemolyticus (2013V-1174), which were obtained from the South China Sea Institute of Oceanology, Chinese Academy of Sciences. The activity was also tested against the Gram-positive bacteria S. aureus ATCC 25923 and B. subtilis ATCC 6051. To assess the antimicrobial activities of the peptides, bacterial cells were cultured to the logarithmic growth phase and then diluted to 10^6–1.5 × 10^7 CFU/mL with PBS (0.01 M, pH 7.2). Equal volumes of serially diluted peptides, with concentrations ranging from 30 to 450 μM in PBS, and bacteria suspension were mixed and incubated at room temperature for 2 h, respectively. Then, 6 μL of each serially diluted mixture was plated on sterile 12-well agar plates, followed by incubation for 11 to 12 h, and the colonies were assessed to determine the MICs and MBCs. The MICs were expressed (in µM) as an [a]–[b] concentration interval, where [a] is the highest peptide concentration at which bacteria were growing and [b] is the lowest concentration that caused 100% growth inhibition. Cultures without peptides were employed as controls. All the tests were performed in triplicate and repeated three times.

[2] = test system: Vibrio alginolyticus (A056)
Description: as §1

[3] = test system: Bacillus subtilis ATCC 6051; settings: ATCC 6051, 2 h, pH 7.2
Description: as §1

[4] = test system: Staphylococcus aureus ATCC 25923; settings: ATCC 25923, 2 h, pH 7.2
Description: as §1

[5] = test system: Vibrio parahaemolyticus 2013V-1174; settings: 2 h, pH 7.2
Description: as §1

Structure (SMILES)	MIC [3]	MIC [4]	MIC ([1]; DH5α, 2 h, pH 7.2)	MIC ([2]; 2 h, pH 7.2)	MBC ([1]; E. coli DH5α, 2 h in PBS pH 7.2 at room temperature, plated 11 to 12 h, triplicate, repeated three times)	MIC ([1]; E. coli DH5α, peptide mixed with bacteria (10^6–1.5 × 10^7 CFU/mL) in PBS 0.01 M pH 7.2, 2 h room temperature, plated on agar 11 to 12 h, interval [a]–[b]: [a] highest concentration with growth, [b] lowest with 100% growth inhibition, triplicate, repeated three times)	MIC ([2]; V. alginolyticus A056, 2 h in PBS pH 7.2 at room temperature, plated 11 to 12 h, interval [a]–[b]: [a] highest concentration with growth, [b] lowest with 100% growth inhibition, triplicate, repeated three times)	MBC ([2]; V. alginolyticus A056, 2 h in PBS pH 7.2 at room temperature, plated 11 to 12 h, triplicate, repeated three times)	MBC [3]	MBC [4]	MBC [5]	MIC [5]	MBC ([1]; DH5α, 2 h, pH 7.2)	MBC ([2]; 2 h, pH 7.2)
CC[C@H](C)[C@H](NC(=O)CNC(=O)[C@H](Cc1c[nH]cn1)NC(=O)[C@H](CC(C)C)NC(=O)[C@H](CC(C)C)NC(=O)[C@H](Cc1ccccc1)NC(=O)CNC(=O)[C@H](C)NC(=O)[C@H](Cc1ccccc1)NC(=O)[C@@H](NC(=O)[C@@H](N)CCCNC(=N)N)C(C)C)C(=O)N[C@@H](CCCCN)C(=O)N[C@@H](CCCNC(=N)N)C(=O)N[C@@H](CO)C(=O)N[C@@H](C)C(=O)O [NpHN5] (H-RVFAGFLLHGIKRSA-OH)	–	–	–	–	450 µM (≈ 752 µg/mL)	200 to 450 µM	50 to 250 µM	250 µM (≈ 418 µg/mL)	–	–	–	–	–	–
CC[C@H](C)[C@H](NC(=O)CNC(=O)[C@H](Cc1c[nH]cn1)NC(=O)[C@H](CCCNC(=N)N)NC(=O)[C@H](CC(C)C)NC(=O)[C@H](Cc1ccccc1)NC(=O)CNC(=O)[C@H](C)NC(=O)[C@H](CCCNC(=N)N)NC(=O)[C@@H](NC(=O)[C@@H](N)CCCNC(=N)N)C(C)C)C(=O)N[C@@H](CCCCN)C(=O)N[C@@H](CCCNC(=N)N)C(=O)N[C@@H](CO)C(=O)N[C@@H](CCCNC(=N)N)C(=O)O [NpHM7] (H-RVRAGFLRHGIKRSR-OH)	>150 µM	>150 µM	>150 µM	>150 µM	–	–	–	–	>150 µM	>150 µM	>150 µM	>150 µM	>150 µM	>150 µM
CC[C@H](C)[C@H](NC(=O)CNC(=O)[C@H](Cc1c[nH]cn1)NC(=O)[C@H](CC(C)C)NC(=O)[C@H](CC(C)C)NC(=O)[C@H](Cc1ccccc1)NC(=O)CNC(=O)[C@H](C)NC(=O)[C@H](CCCNC(=N)N)NC(=O)[C@@H](NC(=O)[C@@H](N)CCCNC(=N)N)C(C)C)C(=O)N[C@@H](CCCCN)C(=O)N[C@@H](CCCNC(=N)N)C(=O)N[C@@H](CO)C(=O)N[C@@H](C)C(=O)O [NpHM3] (H-RVRAGFLLHGIKRSA-OH)	>60 µM	>60 µM	15 to 50 µM	30 to 75 µM	–	–	–	–	>60 µM	>60 µM	>60 µM	15 to 60 µM	>60 µM	>150 µM
CC[C@H](C)[C@H](NC(=O)CNC(=O)[C@H](Cc1c[nH]cn1)NC(=O)[C@H](CC(C)C)NC(=O)[C@H](CC(C)C)NC(=O)[C@H](Cc1ccccc1)NC(=O)CNC(=O)[C@H](C)NC(=O)[C@H](Cc1ccccc1)NC(=O)[C@@H](NC(=O)[C@@H](N)CCCNC(=N)N)C(C)C)C(=O)N[C@@H](CCCCN)C(=O)N[C@@H](CCCNC(=N)N)C(=O)N[C@@H](CO)C(=O)N[C@@H](CCCNC(=N)N)C(=O)O [NpHM2] (H-RVFAGFLLHGIKRSR-OH)	–	–	30 to 60 µM	70 to 150 µM	–	–	–	–	–	–	>60 µM	30 to 60 µM	–	>75 µM
CSCC[C@H](NC(=O)[C@H](Cc1ccccc1)NC(=O)CNC(=O)[C@H](C)NC(=O)[C@H](Cc1ccccc1)NC(=O)[C@@H](N)C(C)C)C(=O)N[C@@H](CC(C)C)C(=O)N[C@@H](Cc1c[nH]cn1)C(=O)NCC(=O)N[C@@H](Cc1ccccc1)C(=O)N[C@@H](CCCCN)C(=O)N[C@@H](CCCCN)C(=O)N[C@@H](CO)C(=O)N[C@@H](C)C(=O)N[C@@H](CC(C)C)C(=O)N[C@H](C(=O)O)C(C)C [NpHN1] (H-VFAGFMLHGFKKSALV-OH)	–	–	250 to 450 µM	50 to 260 µM	–	–	–	–	–	–	–	–	>450 µM	>260 µM
CC[C@H](C)[C@H](NC(=O)CNC(=O)[C@H](Cc1c[nH]cn1)NC(=O)[C@H](CCCNC(=N)N)NC(=O)[C@H](CC(C)C)NC(=O)[C@H](Cc1ccccc1)NC(=O)CNC(=O)[C@H](C)NC(=O)[C@H](CCCNC(=N)N)NC(=O)[C@@H](NC(=O)[C@@H](N)CCCNC(=N)N)C(C)C)C(=O)N[C@@H](CCCCN)C(=O)N[C@@H](CCCNC(=N)N)C(=O)N[C@@H](CO)C(=O)N[C@@H](C)C(=O)O [NpHM6] (H-RVRAGFLRHGIKRSA-OH)	>50 µM	>50 µM	>50 µM	>70 µM	–	–	–	–	>50 µM	>50 µM	>60 µM	15 to 60 µM	>50 µM	>70 µM
CC[C@H](C)[C@H](NC(=O)CNC(=O)[C@H](Cc1c[nH]cn1)NC(=O)[C@H](CC(C)C)NC(=O)[C@H](CC(C)C)NC(=O)[C@H](Cc1ccccc1)NC(=O)CNC(=O)[C@H](C)NC(=O)[C@H](CCCNC(=N)N)NC(=O)[C@@H](NC(=O)[C@@H](N)CCCNC(=N)N)C(C)C)C(=O)N[C@@H](CCCCN)C(=O)N[C@@H](CCCNC(=N)N)C(=O)N[C@@H](CO)C(=O)N[C@@H](CCCNC(=N)N)C(=O)O [NpHM5] (H-RVRAGFLLHGIKRSR-OH)	>50 µM	>50 µM	>50 µM	15 to 70 µM	–	–	–	–	>50 µM	>50 µM	>70 µM	15 to 70 µM	>50 µM	>70 µM

Continued, in another order:

MIC [3]	MIC [4]	MIC ([1]; DH5α, 2 h, pH 7.2)	MIC ([2]; 2 h, pH 7.2)	Structure (SMILES)	MBC ([1]; E. coli DH5α, 2 h in PBS pH 7.2 at room temperature, plated 11 to 12 h, triplicate, repeated three times)	MIC ([1]; E. coli DH5α, peptide mixed with bacteria (10^6–1.5 × 10^7 CFU/mL) in PBS 0.01 M pH 7.2, 2 h room temperature, plated on agar 11 to 12 h, interval [a]–[b]: [a] highest concentration with growth, [b] lowest with 100% growth inhibition, triplicate, repeated three times)	MIC ([2]; V. alginolyticus A056, 2 h in PBS pH 7.2 at room temperature, plated 11 to 12 h, interval [a]–[b]: [a] highest concentration with growth, [b] lowest with 100% growth inhibition, triplicate, repeated three times)	MBC ([2]; V. alginolyticus A056, 2 h in PBS pH 7.2 at room temperature, plated 11 to 12 h, triplicate, repeated three times)	MBC [3]	MBC [4]	MBC [5]	MIC [5]	MBC ([1]; DH5α, 2 h, pH 7.2)	MBC ([2]; 2 h, pH 7.2)
–	–	250 to 500 µM	100 to 300 µM	CC[C@H](C)[C@H](NC(=O)CNC(=O)[C@H](Cc1c[nH]cn1)NC(=O)[C@H](CC(C)C)NC(=O)[C@H](CC(C)C)NC(=O)[C@H](Cc1ccccc1)NC(=O)CNC(=O)[C@H](C)NC(=O)[C@H](Cc1ccccc1)NC(=O)[C@@H](NC(=O)[C@@H](N)CCCNC(=N)N)[C@@H](C)CC)C(=O)NCC(=O)N[C@@H](CCC(N)=O)C(=O)N[C@@H](CO)C(=O)N[C@@H](C)C(=O)O [NpHN6] (H-RIFAGFLLHGIGQSA-OH)	–	–	–	–	–	–	–	–	>500 µM	–
–	–	200 to 500 µM	100 to 280 µM	CC[C@H](C)[C@H](NC(=O)CNC(=O)[C@H](CO)NC(=O)[C@H](CC(C)C)NC(=O)[C@H](CCCNC(=N)N)NC(=O)[C@H](Cc1ccccc1)NC(=O)[C@H](CO)NC(=O)[C@H](C)NC(=O)[C@@H](N)Cc1ccccc1)C(=O)N[C@@H](Cc1c[nH]cn1)C(=O)N[C@H](C(=O)N[C@@H](CO)C(=O)N[C@@H](C)C(=O)N[C@@H](CC(N)=O)C(=O)N[C@H](C(=O)N[C@@H](CCCCN)C(=O)N[C@H](C(=O)N[C@@H](CC(C)C)C(=O)O)C(C)C)C(C)C)[C@@H](C)O [NpHN2] (H-FASFRLSGIHTSANVKVL-OH)	–	–	–	–	–	–	–	–	>500 µM	>280 µM
–	–	250 to 450 µM	50 to 250 µM	CC[C@H](C)[C@H](NC(=O)[C@H](CS)NC(=O)[C@H](CS)NC(=O)[C@H](C)NC(=O)[C@H](Cc1ccc(O)cc1)NC(=O)[C@H](CCCNC(=N)N)NC(=O)[C@H](Cc1c[nH]cn1)NC(=O)[C@H](CC(C)C)NC(=O)[C@H](C)NC(=O)[C@@H](N)CCCCN)C(=O)N[C@@H](Cc1c[nH]cn1)C(=O)NCC(=O)N[C@@H](CCSC)C(=O)N[C@@H](C)C(=O)N[C@H](C(=O)O)[C@@H](C)O [NpHN3] (H-KALHRYACCIHGMAT-OH)	–	–	–	–	–	–	–	–	>450 µM	>250 µM
–	–	200 to 600 µM	100 to 300 µM	CC[C@H](C)[C@H](NC(=O)[C@H](CCCNC(=N)N)NC(=O)[C@@H](NC(=O)[C@H](CC(N)=O)NC(=O)[C@H](C)NC(=O)[C@H](CO)NC(=O)[C@H](C)NC(=O)[C@H](CCC(N)=O)NC(=O)[C@@H](NC(=O)CNC(=O)[C@H](Cc1c[nH]cn1)NC(=O)[C@H](CC(C)C)NC(=O)[C@H](CC(C)C)NC(=O)[C@H](Cc1ccccc1)NC(=O)CN)[C@@H](C)CC)C(C)C)C(=O)O [NpHN4] (H-GFLLHGIQASANVRI-OH)	–	–	–	–	–	–	–	–	>600 µM	>300 µM
